According to patent publication US7314726B2, “Beta secretase exosite binding peptides and methods for identifying beta secretase modulators” (Bristol-Myers Squibb Company, priority 2002, dated 2008):
pKd: −log10 of the molar value.

Target: BACE (Homo sapiens, UniProt P56817)
Test: Isothermal titration calorimetry (ITC) of BACE and peptides
Type: binding
Set-up: The cDNA for the catalytic domain of human BACE (residues 1-460) was PCR-amplified; human IgG1 heavy chain (C, cleaved yes); thrombin cleavage site (C); made in house; host or cells: CHO DG44 cells (stably transfected, secreted)
Description: Isothermal titration calorimetry was performed to determine quantitatively the binding affinities of BMS-561877 and BMS-561871 for β-secretase. Recombinant human BACE was expressed as a fusion protein with human IgG1, in Chinese hamster ovary (CHO) cells (Vassar et al., (1999) Science 286:735-741 and Haniu et al., (2000) J. Biol. Chem. 275:21099-21106).
This construct, referred to as BACE-T-IgG, also contained a protease cleavage site between BACE and IgG1, sensitive to human α-thrombin. The cDNA for the catalytic domain of human BACE (residues 1-460) was PCR-amplified and subcloned into the mammalian expression vector pTV1.6, upstream of a thrombin cleavage site linked to cDNA encoding human IgG1 heavy chain. The vector construct, pTV1.6-BACE-T-IgG, was used to produce stably transfected DHFR-deficient CHO DG44 cells, which were then scaled up using methotrexate for selection.
The clarified growth media harvested from CHO DG44 cells which contained the fusion protein was loaded onto a rProtein A SEPHAROSE™ column (5×20 cm, Amersham Pharmacia Biotech) using a peristaltic pump at 4° C., at 4 mL/min. The column was washed with Dulbecco's PBS, pH 7.1, 4 mL/min, until baseline absorbance at 280 nm was observed. BACE-T-IgG was eluted from the resin with 0.10 M citrate, pH 3.0, into tubes containing 0.5 volumes of 4 M Tris, pH 8. Fractions containing the fusion protein were dialyzed extensively using 12,000-14,000 […] MWCO membrane (UltraPURE, GIBCO BRL) against PBS, pH 7.1, at 4° C. The protein was sterile filtered (0.22 μm) and stored at 4° C.
To generate BACE for binding experiments, the fusion protein BACE-T-IgG was treated with human α-thrombin (Enzyme Research Labs, South Bend, Ind.) at a ratio of 1:500 (mass:mass) in Dulbecco's PBS, pH 7.1, at 37° C. for 2 hr. Human α-thrombin was removed by passing the sample over Benzamidine SEPHAROSE™ 6B column (Amersham Pharmacia Biotech). The cleaved IgG1 was captured by passing the solution over a rProtein A SEPHAROSE™ (Amersham Pharmacia Biotech) column, whereas the BACE passed through this column. The protein sample was further purified by concentrating to 10-15 mg/mL using a centrifugation concentration unit (Millipore Ultrafree 10 kDa MWCO, 15 mL unit) and loading onto a SUPERDEX™ 200 PC 3.2/30 gel-filtration column (Amersham Pharmacia Biotech). The column was run at 3 mL/min with Dulbecco's PBS, pH 7.1, at room temperature. Fractions containing BACE were combined, sterile filtered (0.22 μm) and stored at 4° C.
BACE was prepared for isothermal titrating calorimetry by extensive dialysis against fresh buffer at 4° C. using 12,000-14,000 […] MWCO dialysis membrane (UltraPURE, GIBCO BRL). […] Following 2 buffer changes, the protein was removed from the membrane and centrifuged (5 min×4000 g, 4° C.) to remove particulates. The protein was stored at 4° C. until needed for the calorimetry experiments. The protein concentration was determined by 10-fold dilution into the same buffer, and measuring the UV absorbance at 280 nm in a 1.00 cm pathlength cell (calculated value=1.22 AU=1.00 mg/mL protein, based on mean glycosylated molecular weight=53.5 kDa, and given amino acid composition). Final concentrations used in isothermal titrating calorimetry were typically 5.0 μM, containing a final concentration of 0.5% v/v DMSO.
Peptides were dissolved in the buffer dialysate from protein dialysis, and equal volumes of DMSO were added to each (0.5% v/v DMSO). The pH values of the solutions were adjusted as necessary to equal that of the buffer dialysate and protein sample within 0.01 pH units.

[1] = pH 5.3, 37° C., sample cell: CHO BACE
[2] = pH 5.3, 37° C., sample cell: CHO BACE: OM99-2 (10-fold excess added first)

Chain of BACE (P56817 46-460 limits assumed): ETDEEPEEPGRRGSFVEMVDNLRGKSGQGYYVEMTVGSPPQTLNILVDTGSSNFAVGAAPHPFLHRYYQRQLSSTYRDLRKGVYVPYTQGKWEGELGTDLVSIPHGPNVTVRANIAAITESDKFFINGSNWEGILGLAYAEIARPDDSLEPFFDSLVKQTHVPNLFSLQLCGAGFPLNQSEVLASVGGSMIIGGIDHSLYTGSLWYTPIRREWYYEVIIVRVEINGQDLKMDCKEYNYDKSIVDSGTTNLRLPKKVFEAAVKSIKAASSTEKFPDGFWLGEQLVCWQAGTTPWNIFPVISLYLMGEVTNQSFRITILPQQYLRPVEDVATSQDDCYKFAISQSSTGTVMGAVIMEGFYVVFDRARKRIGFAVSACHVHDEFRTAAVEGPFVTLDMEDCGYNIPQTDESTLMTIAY

KA (25° C., Dulbecco's PBS, pH 7.1): 1.65e+07 M⁻¹
pKd (25° C., Dulbecco's PBS, pH 7.1): 7.21
n (binding stoichiometry) (25° C., Dulbecco's PBS, pH 7.1): 1.03
ΔH (25° C., Dulbecco's PBS, pH 7.1): -12.9 kcal/mol
pKd [1]: 6.42
T(dS) [1]: -6.8 kcal/mol
ΔG [1]: -9.1 kcal/mol
ΔH [1]: -15.9 kcal/mol
pKd [2]: 6.55
T(dS) [2]: -5.7 kcal/mol
ΔG [2]: -9.3 kcal/mol
ΔH [2]: -15.0 kcal/mol
Substance: Ac-NLTTYPYFIPLP-OH [BMS-561871]
